Assay results from paper PMC5510229, “BCAT1 controls metabolic reprogramming in activated human macrophages and is associated with inflammatory diseases” (Nature Communications, 2017).

Experiments:
[1] = tested on: human monocyte-derived macrophages (hMDMs); assay: Itaconate and citrate measurement by GC/MS in hMDMs; format: cell-based
Experimental: (§1) Figure 1 BCAT1 expression and inhibition in human macrophages. […] (b) Chemical structure of ERG240 and leucine. (c) Enzymatic activity of recombinant human BCAT1 and BCAT2 in presence of ERG240. (d) Relative expression of IRG1, HIF1A and IL1B measured by qRT-PCR in control, ERG240-treated (20 mM, 3 h), LPS treated (100 ng ml^−1, 3 h), and LPS+ERG240 treated (LPS, 100 ng ml^−1; ERG240, 20 mM for 3 h) hMDMs. ns, non-significant. All expression values are normalized to those obtained for HPRT gene expression. n=3 healthy donor hMDMs were used in each group. […]
For itaconate, cells pellets containing 1.5 × 10^6 hMDMs were quenched with 400 μl of methanol, previously chilled at −20 °C. […] After a brief centrifugation, derivatized metabolites were transferred into clean GC/MS vials and analysed for the presence of itaconic acid (itaconate) using a 7890A GC System (Agilent Technologies) equipped with an Agilent J&W DB-5ms column (30 m, 0.25 mm, 0.25 μm), connected to an 5975C Triple-Axis MS Detector (Agilent Technologies) and outfitted with an autosampler. […] The amount of itaconate present in the sample was determined after peak integration. […] The GC/MS was performed by Biocrates (BIOCRATES Life Sciences AG, Innsbruck, Austria) and the citrate quantification was performed using their commercially available Kit plates, according to the manufacturer’s instructions. […]

[2] = tested on: human monocyte-derived macrophages (hMDMs); assay: qRT-PCR / Western blot of activation markers in hMDMs; format: cell-based; conditions: 3 h
Experimental: as §1, with “group. (e) Western blot analysis of IRG1, IL-1β, HIF-1α and beta-actin (ACTB) in control (untreated), ERG240-treated (20 mM, 3 h), LPS treated (100 ng ml^−1, 3 h) and LPS+ERG240 treated (LPS, 100 ng ml^−1; ERG240, 20 mM for 3 h) hMDMs.” for “group.”
hMDMs were lysed in Laemmli sample buffer supplemented with protease inhibitors and resolved by SDS-PAGE, transferred into PVDF membranes, and subjected to immunoblotting with the primary antibodies described above and secondary detection antibodies. The probed proteins were detected using SuperSignal West Femto Chemiluminescent Substrate (Thermo Fisher Scientific Inc., Rockford, IL). […] Results were analysed using the comparative Ct method and each sample was normalized to the indicated reference gene, to account for any cDNA loading differences. […]

CC(=O)C(C)CCC(=O)O (stereo not shown) [ERG240]
citrate levels by GC/MS ([1]; LPS 3 h 100 ng/ml + ERG240 vs LPS): further significantly increased | itaconate levels measured by GC/MS ([1]; LPS 8 h 100 ng ml^−1, ERG240 20 mM): decreased itaconate levels | IRG1 protein levels (Western blot) ([2]; LPS 100 ng ml^−1 + ERG240 20 mM): reduction in IRG1 levels | IRG1 mRNA levels ([2]; LPS-stimulated hMDMs (100 ng ml^−1), ERG240 20 mM): dramatic reduction
